Measured values from paper PMC12075652, “ATP functions as a pathogen-associated molecular pattern to activate the E3 ubiquitin ligase RNF213” (Nature Communications, 2025).

Legend:
[1] = biological target: T1, RNF213 (Mus musculus, UniProt E9Q555); test: UBE2L3~Ub discharge assay; assay type: biochemical; settings: activator; 1 mM nucleotide, 0.025 μM E3, 20 μM E2~Ub
T1 construct: full-length recombinant protein, about 600 kDa, N-terminal Strep(II) tag in the pulldown construct

[2] = biological target: T2, RNF213 (∆N338) (Mus musculus, UniProt E9Q555); test: activation of RNF213 labelling by biotin UBE2L3~Ub activity-based probe, blot quantification; assay type: biochemical
T2 construct: N-terminal 338 residues deleted (∆N338), recombinant; biotin UBE2L3~Ub activity-based probe as read-out

[3] = biological target: T3, RNF213 (Mus musculus, UniProt E9Q555, E2449Q/E2806Q); test: cryo-EM structure, […] Å; assay type: binding; settings: ATP modelled in AAA4, AAA3 empty; WB34 mutant
T3 construct: full-length recombinant protein, about 600 kDa, N-terminal Strep(II) tag in the pulldown construct

[4] = biological target: T2, RNF213 (∆N338); test: antagonism of ATPγS-dependent activation, ABP labelling; assay type: biochemical; settings: 900 μM ADP against ATPγS titration; pH 7.5, 2.5 mM MgCl2, 30 °C
[5] = biological target: T4, RNF213-UBE2L3~Ub complex (RNF213-ABP) (Mus musculus, UniProt E9Q555); test: cryo-EM structure, […] Å; assay type: binding; settings: ADP modelled in AAA3 and AAA4; ATPγS-stimulated labelling reaction applied directly to grid
T4 construct: full-length murine RNF213 covalently linked at Cys4462 to human UBE2L3~Ub activity-based probe; ubiquitin and RZ domain not resolved; with Ubiquitin-conjugating enzyme E2 L3 (Homo sapiens); Ubiquitin (Homo sapiens)

EC50 [2] | SMILES | UBE2L3~Ub discharge assay [1] | cryo-EM structure, 4.5 Å [3] | antagonism of ATPγS-dependent activation, ABP labelling [4] | cryo-EM structure, 3.8 Å [5]
85 µM | Nc1ncnc2c1ncn2[C@@H]1O[C@H](COP(=O)(O)OP(=O)(O)OP(O)(O)=S)[C@@H](O)[C@H]1O [ATPγS] | (ATPγS) and adenylyl-imidodiphosphate (AMP-PNP) also stimulated E2~Ub discharge | – | – | –
– | Nc1ncnc2c1ncn2[C@@H]1O[C@H](COP(=O)(O)OP(=O)(O)OP(=O)(O)O)[C@@H](O)[C@H]1O [ATP] | E3 activity was enhanced by ATP, but not by ADP or AMP | Although ATP could be modeled into AAA4, AAA3 was empty | – | –
– | Nc1ncnc2c1ncn2[C@@H]1O[C@H](COP(=O)(O)OP(=O)(O)O)[C@@H](O)[C@H]1O [ADP] | – | – | These data suggest that ADP inhibits ATP-dependent activation | new density at the AAA3 and AAA4 sites allowed modeling of ADP
– | Nc1ncnc2c1ncn2[C@@H]1O[C@H](COP(=O)(O)OP(=O)(O)NP(=O)(O)O)[C@@H](O)[C@H]1O [AMP-PNP] | (ATPγS) and adenylyl-imidodiphosphate (AMP-PNP) also stimulated E2~Ub discharge | – | – | –
